{"source": "paper PMC3102069", "about": "“Charge Isomers of Myelin Basic Protein: Structure and Interactions with Membranes, Nucleotide Analogues, and Calmodulin” (PLoS ONE, 2011)", "target": "T1, rmC1 (recombinant murine 18.5-kDa myelin basic protein, C1 charge component); rmC8 is its six-fold Gln variant (Mus musculus, UniProt P04370)", "T1 construct": "gene Mbp", "T1 sequence (P04370 1-169 isoform P04370-5 limits assumed)": "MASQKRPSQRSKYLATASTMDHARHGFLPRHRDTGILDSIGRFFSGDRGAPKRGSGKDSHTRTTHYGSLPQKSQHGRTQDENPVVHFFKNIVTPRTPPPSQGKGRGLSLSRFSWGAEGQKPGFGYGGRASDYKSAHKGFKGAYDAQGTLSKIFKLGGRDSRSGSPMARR", "assay": "fluorescence, FRET from Trp to mant (ex […] nm, em […] nm)", "format": "binding", "settings": "0.25 µM rmC1, 0.5-12.5 µM nucleotide, 10 mM HEPES pH 7.5; labelled compound"}
{"smiles": "CNc1ccccc1C(=O)O[C@H]1[C@@H](O)[C@H](n2cnc3c(N)ncnc32)O[C@@H]1COP(=O)(O)OP(=O)(O)OP(=O)(O)O", "note": "[mant-ATP]", "values": [{"measurement": "fluorescence, FRET from Trp to mant (ex 280 nm, em 448 nm)", "result": "while both mant-ATP and mant-GTP bound to rmC1, mant-AMP did not"}]}
